Laboratory results taken from patent US9624485B2, “Genetic incorporation of unnatural amino acids into proteins in mammalian cells” (The Scripps Research Institute, priority 2006, dated 2017).

How the values were obtained:
position 37 of GFP = assay: Fidelity of unnatural amino acid incorporation by nano-RP LC/MS/MS and ESI TOF-MS; settings: for wild type peptide signals in tandem MS of mutant GFP: nano-RP LC/MS/MS of tryptic fragments, T-REx CHO cells
Text: To further characterize GFP-pMpa, the mutant protein was expressed in T-REx™ CHO cells transiently transfected with both pSWAN-pMpaRS and pSWAN-GFP37TAG. The protein was purified using an anti-myc antibody agarose column and then separated by SDS-PAGE. The GFP-pMpa band from the SDS-PAGE gel was digested with trypsin and analyzed by nanoscale reversed-phase liquid chromatography/mass spectrometry/mass spectrometry (nano-RP LC/MS/MS). In parallel, wild type GFP was purified from cells transfected with pcDNA4-GFP and subjected to the same analysis.
Proteolysis of affinity purified proteins (performed for wild-type and pBpa samples) was carried out by overnight incubation of proteins at 37° C. with sequencing-grade modified trypsin (Promega) using a substrate/enzyme ratio of 10:1 (wt/wt) based on the estimated protein concentration in 100 mM triethylammonium bicarbonate buffer (pH 8.5). In-gel digestions (performed for pMpa, pAzpa, pApa, and pPpa samples) were performed according to a modified EMBL procedure (see the website for EMBL, Heidelberg, Germany, Bioanalytical Research Group). Briefly, gel slices were excised to approximately 1 mm×1 mm cubes, washed for 5 minutes with water, 15 minutes with acetonitrile, and dried in a vacuum centrifuge before being rehydrated at 0° C. for 30 minutes with 12.5 ng/μl of sequencing-grade modified trypsin in 50 mM triethylammonium bicarbonate buffer (pH 8.5). Excess buffer was removed and 20 μl of 50 mM triethylammonium bicarbonate buffer (pH 8.5) was added to the gel slices before incubating at 37° C. overnight. Peptides were extracted from the gel slices as described in the protocol.
Nano-RP LC/MS/MS was performed with an HPLC pump, autosampler (Agilent Technologies, Palo Alto, Calif.), and an LTQ Orbitrap hybrid mass spectrometer (ThermoElectron, San Jose, Calif.). Tryptic digests were loaded with a pressure bomb onto a 75 μm i.d. precolumn packed with 4 cm of 5-μm Monitor C18 particles (Column Engineering, Ontario, Calif.) at a flow rate of approximately 2 μl/min. The precolumn was then connected to the HPLC pump and after several minutes of washing with solvent A the analytical column with integrated emitter tip (360 μm O.D.×75 μm i.d; 10 cm of 5 μM C18, ˜5-μm tip) was connected in series. The chromatographic profile was from 100% solvent A (0.1% aqueous acetic acid) to 50% solvent B (0.1% acetic acid in acetonitrile) in 40 min; the flow rate through the analytical column was ca. 100 nl/min.
For data-dependent experiments, the mass spectrometer was programmed to first record a high-resolution Orbitrap scan then a full-scan ion trap spectrum (m/z 500-2,000). This was followed by 10 data-dependent MS/MS scans (relative collision energy=35%; 3-Da isolation window) triggered of the ion-trap scan and finally two targeted MS/MS scans. The first targeted MS/MS scan was set to isolate and fragment the doubly charged precursor ion of the predicted unnatural amino acid modified peptide
at m/z 752.3. The raw data were searched against the MSDB database using MASCOT (Matrixscience, London, UK) for protein identification and to find the scans containing the target peptides with the unnatural amino acids as variable modification. To estimate fidelity at Y*37 of GFP-pMpa, single ion chromatograms (doubly charged precursor ions at m/z 752.3 for the wt and 759.3 for pMpa) and selected ion chromatograms (y9, y11, and y12) were integrated using the Xcalibur software package (ThermoElectron, San Jose, Calif.).
Intact protein mass spectra were acquired on an automated LC/MS system (Waters, Milford, Mass.) consisting of a capillary LC with auto-sampler and a QTOF2 mass spectrometer. GFP-pMpa (0.1 mg/ml) was loaded onto a reversed-phase protein Captrap (Michrom Bioresources, Auburn, Calif.) for desalting with 0.1% acetic acid in water and eluted with 80% acetonitrile/0.1% acetic acid at 5 μl/min into the ESI source of the mass spectrometer. […]

[1] = tested on: amber codon in GFP37TAG in T-REx 293 cells; assay: Amber suppression of GFP37TAG by BstRNACUA^Tyr/EcTyrRS variants, Western blot of full-length GFP; assay type: cell-based, human; settings: 8 mM in media, 48 hours
Method: (§1) The ability of the six EcTyrRS variants together with BstRNACUA^Tyr to suppress the amber codon in GFP37TAG was then tested in the presence and absence of unnatural amino acids in the growth media. Transient transfection of cells with plasmids was carried out as described for wild type EcTyrRS. Six hours after transfection, the media were replaced by the fresh media containing 1 μg/ml tetracycline and supplemented with the corresponding unnatural amino acid (pMpa, 10 mM; pApa, 10 mM; pBpa, 1 mM; plpa, 8 mM; pAzpa, 5 mM; or pPpa, 1 mM). Cells were then grown 24 hours for T-REx™ CHO cell lines and 48 hours for T-REx™ 293 cell lines before harvesting. In both T-REx™ CHO and 293 cells, the expression of full length GFP37TAG was dependent upon the presence of unnatural amino acids in the growth media as indicated in FIG. 2 and FIG. 3. […]
(§2) For Western blot analysis, harvested cells were lysed in RIPA buffer (Upstate Biotechnology/Millipore) with a 1:100 dilution of protease inhibitor cocktail (Sigma). […] Chemiluminescence was then detected with PIERCE ECL Western Blotting substrate. For T-REx™ 293 cells, the membranes were probed with anti-His-HRP (Invitrogen™; 1:5000 dilution) and then detected with PIERCE ECL Western Blotting substrate.

[2] = tested on: amber codon in GFP37TAG in T-REx CHO cells; assay: as above; assay type: cell-based, Chinese hamster; settings: 8 mM in media, 24 hours
Method: as §1, §2

T-REx 293 cells = assay: Cellular toxicity of the unnatural amino acid in growth media; assay type: cell-based, human; settings: 8 mM in media

## CC(=O)c1ccc(C[C@H](N)C(=O)O)cc1 [pApa, p-acetyl-L-phenylalanine]
Position 37 of GFP
  wild type peptide signals in tandem MS of mutant GFP: No wild type signals could be detected

## [N-]=[N+]=Nc1ccc(C[C@H](N)C(=O)O)cc1 [pAzpa, p-azido-L-phenylalanine]
Position 37 of GFP; mutant GFP containing pAzpa
  stability of the azido amino acid in mutant GFP seen by tandem MS: Most of pAzpa decays to pAmpa
Position 37 of GFP
  wild type peptide signals in tandem MS of mutant GFP: No wild type signals could be detected

## N[C@@H](Cc1ccc(C(=O)c2ccccc2)cc1)C(=O)O [pBpa, p-benzoyl-L-phenylalanine]
Position 37 of GFP
  wild type peptide signals in tandem MS of mutant GFP: trace amount of the wild type peptide

## COc1ccc(C[C@H](N)C(=O)O)cc1 [pMpa, p-methoxy-L-phenylalanine]
Position 37 of GFP; affinity purified GFP-pMpa
  wild type GFP signals in intact protein ESI TOF-MS: No wild type GFP signals

## C#CCOc1ccc(C[C@H](N)C(=O)O)cc1 [pPpa, p-propargyloxyphenylalanine]
Position 37 of GFP
  wild type peptide signals in tandem MS of mutant GFP: No wild type signals could be detected

## N[C@@H](Cc1ccc(I)cc1)C(=O)O [plpa, p-iodo-L-phenylalanine]
[1]
  expression of GFP containing the unnatural amino acid: no GFP expression
[2]
  expression level of GFP containing the unnatural amino acid: low expression level
T-REx 293 cells
  time until cells die (cellular toxicity): 6 h
